Measured values: patent US20260226066A1, “PGDH INHIBITORS AND METHODS OF MAKING AND USING” (Epirium Bio Inc., priority 2023, published 2026)

How the values were obtained:
A549 = A549 EC50 (cell assay, no method described); type: cell-based
15-PGDH/HPGD = target: T1, 15-PGDH/HPGD (Homo sapiens, UniProt P15428); assay: hPGDH inhibitor screening biochemical assay; conditions: 10 nM enzyme, fluorescence ex/em 340/485 nm
T1 construct: purchased R&D System 5660-DH
T1 sequence (P15428 1-266): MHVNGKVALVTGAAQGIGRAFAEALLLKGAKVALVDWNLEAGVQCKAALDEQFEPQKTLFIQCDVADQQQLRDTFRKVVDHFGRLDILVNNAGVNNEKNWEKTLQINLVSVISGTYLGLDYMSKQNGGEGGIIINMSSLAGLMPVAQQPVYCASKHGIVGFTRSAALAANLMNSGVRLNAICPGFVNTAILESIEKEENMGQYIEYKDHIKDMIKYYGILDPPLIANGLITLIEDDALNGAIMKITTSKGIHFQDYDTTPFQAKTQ
Experimental: A hydroxyprostaglandin dehydrogenase inhibition screening biochemical assay can be performed to assess the synthesized inhibitors provided herein. Provided herein is an exemplary biochemical assay for hPGDH inhibitor screening.
The in vitro biochemical assay can be performed in white, 384 plates in total 20 μl reaction volume consisting of 10 nM of 15-PGDH/HPGD (R&D System #5660-DH), 15 µM Prostaglandin E2 (Sigma, Cat #P5640-10MG) and 0.25 mM β-Nicotinamide adenine dinucleotide sodium salt (Sigma, Cat #N0632-5G) made in reaction buffer (50 mM Tris-HCl, pH 7.5, 0.01% Tween 20) at 10-point dose response curve for test/tool compounds. Briefly, 5 μl (4×) of compounds solution and 5 μl (final concentration, 10 nM) of enzyme solution is added to white 384 well plates and incubated for 10 mins at 37° C. 5 μl (4×) of Prostaglandin E2 and 5 μl (4×) of β-Nicotinamide adenine dinucleotide sodium salt is added to the wells and incubated for 10 mins at room temperature. Fluorescence is recorded at ex/em=340 nm/485 nm.

`CNC(=O)c1cccc(-c2cncc(-n3ncc4cc([S+]([O-])C5CCCC5)cnc43)c2)c1` (single isomer, unassigned) [Compound 16A] was tested. Which EC50 (A549; A549) did it give?
The EC50 was < 100 nM.

And the IC50 (15-PGDH/HPGD)?
Its IC50 is < 100 nM.

Which EC50 (A549; Homo sapiens, A549, A549) does the source give for `COCC[S+]([O-])c1cnc2c(cnn2-c2cccc(-c3nnc[nH]3)c2)c1` (stereo not shown) [Compound 28] here?
Its EC50 is 100 to 1000 nM.

And the IC50 (15-PGDH/HPGD)?
Its IC50 is < 100 nM.

`CNC(=O)c1ccc(-n2ncc3cc([S+]([O-])CCC(C)C)cnc32)cc1` (stereo not shown) [Compound 124A] was tested. Which EC50 (A549; A549) did it give?
Its EC50 is ≥ 1000 nM.

And the IC50 (15-PGDH/HPGD)?
The IC50 was 100 to 1000 nM.

`[O-][S+](c1cnc2c(ccn2-c2ccc3nc(N4CCOCC4)nn3c2)c1)C1CC1` (stereo not shown) [Compound 69] was tested. Which EC50 (A549; Homo sapiens, A549, A549) did it give?
Its EC50 is ≥ 1000 nM.

What about the IC50 (15-PGDH/HPGD) of the same compound?
Its IC50 is < 100 nM.

For `O=S(=O)(c1cnc2c(ccn2-c2cccc(-c3nnc[nH]3)c2)c1)C1CCCC1` [Compound 61], which EC50 (A549; Homo sapiens, A549, A549) is on record?
The EC50 was 100 to 1000 nM.

And the IC50 (15-PGDH/HPGD)?
The IC50 was < 100 nM.

For `CCOC(=O)Nc1cncc(-n2ncc3cc(C(=O)CC4CCC4)cnc32)c1` [Compound 42], which IC50 (15-PGDH/HPGD) is on record?
The IC50 was < 100 nM.

What does the source list for `COCCC[S+]([O-])c1cnc2c(cnn2-c2cccc(-c3nnc[nH]3)c2)c1` (stereo not shown) [Compound 29]?
EC50 (A549; A549): 100 to 1000 nM; IC50 (15-PGDH/HPGD): < 100 nM

Which results are given for `COCC1(C[S+]([O-])c2cnc3c(cnn3-c3cccc(-c4nnc[nH]4)c3)c2)CC1` (stereo not shown) [Compound 122B]?
EC50 (A549; A549): ≥ 1000 nM; IC50 (15-PGDH/HPGD): 100 to 1000 nM

How did the EC50 (A549; A549) turn out when `CN(C)c1nnc(-c2cccc(-n3ncc4cc([S+]([O-])C5CCC5)cnc43)c2)[nH]1` (stereo not shown) [Compound 100B] was run?
The EC50 was ≥ 1000 nM.

What about the IC50 (15-PGDH/HPGD) of the same compound?
The IC50 was ≥ 1000 nM.

How did the EC50 (A549; A549) turn out when `[O-][S+](c1cnc2c(cnn2-c2cccc(-c3nnc[nH]3)c2)c1)C1C[C@@H]2C[C@@H]2C1` (single isomer, unassigned) [Compound 123B] was run?
The EC50 was < 100 nM.

What about the IC50 (15-PGDH/HPGD) of the same compound?
Its IC50 is < 100 nM.

How did the IC50 (15-PGDH/HPGD) turn out when `O=c1cc(-c2cccc(-n3ncc4cc([S+]([O-])C5CCC5)cnc43)c2)cc[nH]1` (stereo not shown) [Compound 94B] was run?
The IC50 was 100 to 1000 nM.

With `COC1CC([S+]([O-])c2cnc3c(cnn3-c3cccc(-c4nnc[nH]4)c3)c2)C1` (single isomer, unassigned) [Compound 105C] as the compound, how does the EC50 (A549; A549) read?
Its EC50 is ≥ 1000 nM.

What about the IC50 (15-PGDH/HPGD) of the same compound?
Its IC50 is < 100 nM.

What does the source list for `[O-][S+](c1cnc2c(ccn2-c2cccc(-c3nnc[nH]3)c2)n1)C1CC(F)(F)C1` (stereo not shown) [Compound 110B]?
EC50 (A549; A549): ≥ 1000 nM; IC50 (15-PGDH/HPGD): < 100 nM

How did the EC50 (A549; Homo sapiens, A549, A549) turn out when `CC(C)CC[S+]([O-])c1cnc2c(ccn2-c2cncc(-c3nnc[nH]3)c2)c1` (single isomer, unassigned) [Compound 53B] was run?
The EC50 was < 100 nM.

What about the IC50 (15-PGDH/HPGD) of the same compound?
Its IC50 is < 100 nM.

How did the EC50 (A549; A549) turn out when `CNC(=O)c1ccc(-n2ncc3cc([S+]([O-])C4CC(F)(F)C4)cnc32)cc1` (stereo not shown) [Compound 118B] was run?
Its EC50 is ≥ 1000 nM.

And the IC50 (15-PGDH/HPGD)?
Its IC50 is 100 to 1000 nM.

Which IC50 (15-PGDH/HPGD) does the source give for `CCCC[S+]([O-])c1cnc2c(cnn2-c2cc(F)cc(NC(=O)OCC)c2)c1` (stereo not shown) [Compound 27B] here?
The IC50 was ≥ 1000 nM.

Which results are given for `[O-][S+](c1cnc2c(cnn2-c2cccc(-c3nnc[nH]3)c2)c1)C1CCC1` (single isomer, unassigned) [Compound 18B, 1-(3-(4H-1,2,4-triazol-3-yl)phenyl)-5-(cyclobutylsulfinyl)-1H-pyrazolo[3,4-b]pyridine]?
EC50 (A549; A549): < 100 nM; IC50 (15-PGDH/HPGD): < 100 nM

What does the source list for `[O-][S+](c1cnc2c(ccn2-c2ccc(-c3nnc[nH]3)cc2)c1)C1CC1` (stereo not shown) [Compound 68]?
EC50 (A549; Homo sapiens, A549, A549): ≥ 1000 nM; IC50 (15-PGDH/HPGD): < 100 nM

Which results are given for `COCCC[S+]([O-])c1cnc2c(cnn2-c2ccc(N3CCN(C)C3=O)nc2)c1` (single isomer, unassigned) [Compound 114A]?
EC50 (A549; Homo sapiens, A549, A549): ≥ 1000 nM; IC50 (15-PGDH/HPGD): < 100 nM

Which EC50 (A549; A549) does the source give for `CC(C)CC[S+]([O-])c1cnc2c(ccn2-c2ccc(C(=O)O)cc2)c1` (single isomer, unassigned) [Compound 48A] here?
Its EC50 is < 100 nM.

What about the IC50 (15-PGDH/HPGD) of the same compound?
The IC50 was < 100 nM.

With `[O-][S+](c1cnc2c(cnn2-c2cccc(-c3ccnc(N4CCOCC4)c3)c2)c1)C1CCC1` (stereo not shown) [Compound 91B] as the compound, how does the IC50 (15-PGDH/HPGD) read?
Its IC50 is 100 to 1000 nM.

`CC(C)CC[S+]([O-])c1cnc2c(cnn2-c2ccc(CCCC(=O)O)c(F)c2)c1` (stereo not shown) [Compound 127A] was tested. Which IC50 (15-PGDH/HPGD) did it give?
Its IC50 is 100 to 1000 nM.

For `CC(=O)Nc1cccc(-c2cncc(-n3ncc4cc([S+]([O-])C5CCCC5)cnc43)c2)c1` (single isomer, unassigned) [Compound 14B], which IC50 (15-PGDH/HPGD) is on record?
The IC50 was 100 to 1000 nM.

How did the IC50 (15-PGDH/HPGD) turn out when `[O-][S+](c1cnc2c(cnn2-c2cccc(-c3ccc(O)nc3)c2)c1)C1CCC(F)(F)C1` (single isomer, unassigned) [Compound 5B] was run?
The IC50 was ≥ 1000 nM.

With `CC(C)CC[S+]([O-])c1cnc2c(cnn2-c2ccc(CCCC(=O)O)c(F)c2)c1` (stereo not shown) [Compound 127B] as the compound, how does the IC50 (15-PGDH/HPGD) read?
Its IC50 is < 100 nM.

How did the IC50 (15-PGDH/HPGD) turn out when `[O-][S+](c1cnc2c(cnn2-c2cccc(-c3nnc[nH]3)c2)c1)C1CCC(F)(F)C1` (single isomer, unassigned) [Compound 8B] was run?
The IC50 was 100 to 1000 nM.

With `[O-][S+](c1cnc2c(cnn2-c2cccc(-c3ccc(N4CCOCC4)nc3)c2)c1)C1CCC1` (stereo not shown) [Compound 95A] as the compound, how does the IC50 (15-PGDH/HPGD) read?
The IC50 was < 100 nM.

For `Cc1nnc(-c2cccc(-n3ncc4cc([S+]([O-])C5CCC5)cnc43)c2)[nH]1` (stereo not shown) [Compound 92A], which IC50 (15-PGDH/HPGD) is on record?
Its IC50 is 100 to 1000 nM.

For `[O-][S+](c1cnc2c(cnn2-c2cccc(-c3nnc[nH]3)c2)c1)C1CC(F)(F)C1` (single isomer, unassigned) [Compound 7A], which IC50 (15-PGDH/HPGD) is on record?
The IC50 was 100 to 1000 nM.

With `[O-][S+](c1cnc2c(cnn2-c2cccc(-c3ccnc(N4CCOCC4)c3)c2)c1)C1CCC1` (stereo not shown) [Compound 91A] as the compound, how does the IC50 (15-PGDH/HPGD) read?
The IC50 was < 100 nM.

Which IC50 (15-PGDH/HPGD) does the source give for `[O-][S+](c1cnc2c(cnn2-c2cccc(-c3nnc[nH]3)c2)c1)C1CCC(F)(F)C1` (single isomer, unassigned) [Compound 8A] here?
The IC50 was ≥ 1000 nM.

With `[O-][S+](c1cnc2c(cnn2-c2cccc(-c3ccc(N4CCOCC4)nc3)c2)c1)C1CCC1` (stereo not shown) [Compound 95B] as the compound, how does the IC50 (15-PGDH/HPGD) read?
Its IC50 is 100 to 1000 nM.

`CC(C)OC[S+]([O-])c1cnc2c(cnn2-c2cccc(-c3nnc[nH]3)c2)c1` (single isomer, unassigned) [Compound 2A, 1-(3-(4H-1,2,4-triazol-3-yl)phenyl)-5-((isopropoxymethyl)sulfinyl)-1H-pyrazolo[3,4-b]pyridine] was tested. Which IC50 (15-PGDH/HPGD) did it give?
Its IC50 is 100 to 1000 nM.

`CC1(O)CC([S+]([O-])c2cnc3c(cnn3-c3cccc(-c4nnc[nH]4)c3)c2)C1` (stereo not shown) [Compound 107A] was tested. Which EC50 (A549; Homo sapiens, A549, A549) did it give?
The EC50 was ≥ 1000 nM.

With `COCCC[S+]([O-])c1cnc2c(ccn2-c2cccc(-c3nnc[nH]3)c2)n1` (stereo not shown) [Compound 103A] as the compound, how does the IC50 (15-PGDH/HPGD) read?
The IC50 was 100 to 1000 nM.

How did the IC50 (15-PGDH/HPGD) turn out when `[O-][S+](c1cnc2c(cnn2-c2ccc3nc(N4CCOCC4)nn3c2)c1)C1CC(F)(F)C1` (stereo not shown) [Compound 117B] was run?
The IC50 was 100 to 1000 nM.

Which IC50 (15-PGDH/HPGD) does the source give for `COc1cc(-c2cccc(-n3ncc4cc([S+]([O-])C5CCC5)cnc43)c2)ccn1` (single isomer, unassigned) [Compound 93B] here?
Its IC50 is ≥ 1000 nM.

Which IC50 (15-PGDH/HPGD) does the source give for `O=S(=O)(c1cnc2c(cnn2-c2ccc(-c3nnc[nH]3)cc2)c1)C1CCOCC1` [Compound 37] here?
Its IC50 is ≥ 1000 nM.

With `COc1ccc(-c2cccc(-n3ncc4cc([S+]([O-])C5CCC5)cnc43)c2)cn1` (stereo not shown) [Compound 90B] as the compound, how does the IC50 (15-PGDH/HPGD) read?
Its IC50 is 100 to 1000 nM.

How did the IC50 (15-PGDH/HPGD) turn out when `[O-][S+](c1cnc2c(cnn2-c2ccc3nc(N4CCOCC4)nn3c2)c1)C1CC(F)(F)C1` (stereo not shown) [Compound 117A] was run?
The IC50 was < 100 nM.

For `COCC(C)(C)C[S+]([O-])c1cnc2c(cnn2-c2cccc(-c3nnc[nH]3)c2)c1` (single isomer, unassigned) [Compound 126A], which IC50 (15-PGDH/HPGD) is on record?
The IC50 was ≥ 1000 nM.

How did the IC50 (15-PGDH/HPGD) turn out when `COCC(C)(C)C[S+]([O-])c1cnc2c(cnn2-c2cccc(-c3nnc[nH]3)c2)c1` (single isomer, unassigned) [Compound 126B] was run?
Its IC50 is < 100 nM.

`CCOC(=O)Nc1cncc(-n2ccc3cc([S+]([O-])C4CC4)cnc32)c1` (stereo not shown) [Compound 67] was tested. Which IC50 (15-PGDH/HPGD) did it give?
The IC50 was < 100 nM.

Which IC50 (15-PGDH/HPGD) does the source give for `[O-][S+](c1cnc2c(cnn2-c2cccc(-c3ccc(O)nc3)c2)c1)C1CCC(F)(F)C1` (single isomer, unassigned) [Compound 5D] here?
The IC50 was < 100 nM.
